Marks after values point to notes of the source that are not given here.
Experiments:
[1] = Gravimetric Vapor Sorption (GVS); assay type: physicochemical; conditions: 25° C., w/w
Method: Sorption isotherms were obtained using a SMS DVS Intrinsic moisture sorption analyzer, controlled by DVS Intrinsic Control software. The sample temperature was maintained at 25° C. by the instrument controls. The humidity was controlled by mixing streams of dry and wet nitrogen, with a total flow rate of 200 ml/min. The relative humidity was measured by a calibrated Rotronic probe (dynamic range of 1.0-100% RH), located near the sample. The weight change, (mass relaxation) of the sample as a function of % RH was constantly monitored by a microbalance (accuracy ±0.005 mg).
Typically, 5-30 mg of sample was placed in a tared mesh stainless steel basket under ambient conditions. The sample was loaded and unloaded at 40% RH and 25° C. (typical room conditions). A moisture sorption isotherm was performed as outlined below (2 scans per complete cycle). The standard isotherm was performed at 25° C. at 10% RH intervals over a 0-90% RH range. Typically, a double cycle (4 scans) was carried out. Data analysis was carried out within Microsoft Excel using the DVS Analysis Suite.

[2] = XRPD re-analysis after GVS isotherm; assay type: physicochemical; conditions: after isotherm at 90% RH and 25° C.
Method: The samples were recovered after completion of the isotherm experiment at 90% RH and 25° C. and re-analyzed by XRPD.

[3] = Stability of solid state forms (storage, drying), XRPD; assay type: physicochemical
Method: Samples were assessed for stability under ambient or static storage conditions of 25° C./[…] and 40° C./75% RH for 7 or 10 days. The samples were then re-analyzed by XRPD. Subsequent XRPD analysis results for the crystalline forms are described below: […]

[4] = Competitive slurries Form 1 / Form 2 (thermodynamic stability); assay type: physicochemical; conditions: water activities 0.4-0.8; 5, 25, 50° C.
Method: Competitive slurries aiming to determine the order of stability between Form 1 and Form 2 were performed in a range of water activities (0.4-0.8).
Crystalline Form 1 (2 g) and Crystalline Hydrate Form 2 (2 g) were lightly ground together using a mortar and pestle and then mixed using a roller mixer for approximately 2 hours. An XRPD was collected on this sample.
Saturated solutions at 5° C./25° C. were prepared by suspending the mixed sample (200 mg) in 4 ml of the selected solvent and saturated solutions were prepared at 50° C. by suspending the mixed sample (100 mg) in 1 ml of the selected solvent. The saturated solutions were left stirring for 3 hrs at 25° C. and 50° C. The saturated solutions at 25° C. were filtered and split into solutions at 5° C. and 25° C. The mixed sample (50 mg) was added to the filtered solutions. Two control samples of Form 2 (50 mg) were prepared in 1 ml of acetone:water (99:1) and EtOH:water (95:5) and left stirring at 5° C., 25° C. and 50° C.

[5] = Variable temperature XRPD (heating); assay type: physicochemical; conditions: heating to 110° C.
Method: For variable temperature (VT-XRPD) experiments the samples were prepared and analyzed in an Anton Paar chromed sample holder. A heating/cooling rate of 10° C./min was used with a 2 min isothermal hold before the measurement started. The measurement parameters are as per the standard screening data collection method (detailed above). Measurements were taken at the following temperatures: […]

CPT2-deficient myoblasts = conditions: Djouadi 2005; cited from earlier work
[6] = system: patient fibroblasts (VLCAD, LCHAD, TFP deficiencies); conditions: Goddeeris 2017; cited from earlier work
CPT2 = conditions: patient fibroblasts, mild CPT2 mutations; Djouadi 2003; cited from earlier work
[7] = listed as crystalline Form 4 of Compound II

## Cc1cc(OC/C=C(/c2ccc(F)cc2)c2ccc(C#CCN3CCOCC3)cc2)ccc1OCC(=O)[O-].[Na+] [Form 1, sodium (E)-2-(4-((3-(4-fluorophenyl)-3-(4-(3-morpholinoprop-1-yn-1-yl)phenyl)allyl)oxy)-2-methylphenoxy)acetate]
[1]
  Reversible Water Uptake between 0-90% RH: ~13.0% †
[1]; listed as crystalline Form 1 of Compound II
  Reversible Water Uptake between 0-90% RH: ~13.0%
[2]
  Solid State Form After GVS (XRPD): Unchanged (Form 1)
[3]; 25° C./97% RH
  time to complete conversion to Form 2: 4 weeks
[3]; 25° C./97% RH/7 days
  XRPD form after storage: Form 2
[3]; 40° C./75% RH/7 days
  XRPD form after storage: Unchanged (Form 1)
[4]
  form found in competitive slurries of Form 1 and Form 2: present in most cases with no evidence of Form 2

## Cc1cc(OC/C=C(/c2ccc(F)cc2)c2ccc(C#CCN3CCOCC3)cc2)ccc1OCC(=O)[O-].[Na+] [Form 4, sodium (E)-2-(4-((3-(4-fluorophenyl)-3-(4-(3-morpholinoprop-1-yn-1-yl)phenyl)allyl)oxy)-2-methylphenoxy)acetate]
[1]
  Reversible Water Uptake between 0-90% RH: ~23%
[1]; [7]
  Reversible Water Uptake between 0-90% RH: ~23%
[2]
  Solid State Form After GVS (XRPD): Form 2
[2]; [7]
  Solid State Form After GVS (XRPD): converts to Form 2
[3]; 25° C./97% RH/7 days
  XRPD form after storage: Form 2
[3]; 25° C./97% RH/7 days, listed as crystalline Form 4 of Compound II
  XRPD form after storage: converts to Form 2
[3]; 40° C./75% RH/7 days
  XRPD form after storage: Form 1
[3]; 40° C./75% RH/7 days, listed as crystalline Form 4 of Compound II
  XRPD form after storage: converts to Form 1
[5]
  XRPD after heating: unchanged

## CC(C)(Sc1ccc(CCN(CCCCC2CCCCC2)C(=O)NC2CCCCC2)cc1)C(=O)O [GW 7647]
CPT2-deficient myoblasts
  FAO: had no effect

## Cc1cnc(-c2ccc(C(F)(F)F)cc2)n1Cc1ccccc1OCCC[C@@H](C)CC(=O)O [MA-0211]
[6]
  fatty acid oxidation: improvements

## CC(C)(Oc1ccc(CCNC(=O)c2ccc(Cl)cc2)cc1)C(=O)O [bezafibrate, 2-(4-{2-[(4-Chlorobenzoyl)amino]ethyl}phenoxy)-2-methylpropanoic acid]
CPT2-deficient myoblasts
  FAO: able to restore FAO
CPT2
  activity of the deficient enzyme (CPT2): pharmacological enhancement

Reference: patent US11931365B2, “Use of PPAR-delta agonists in the treatment of disease” (Reneo Pharmaceuticals, Inc., priority 2022, dated 2024)
